Reference: ChEMBL document CHEMBL6087447, “Impact of Linker Composition on VHL PROTAC Cell Permeability” (J Med Chem, 2025)

assay: Permeability of the compound in PBS buffer at pH 7.4 incubated for 16 hrs by LC-MS/MS based PAMPA assay; type: ADME; settings: read-out: permeability

Papp at 16 h [×10⁻⁶ cm/s] | Compound
6.67 | Cc1ncsc1-c1ccc(CNC(=O)[C@@H]2C[C@@H](O)CN2C(=O)[C@@H](NC(=O)CN(C)CCCCCCOc2cnc3c(C4CCN(C(=O)c5ccc(OC(F)(F)F)cc5)CC4)ncnc3c2)C(C)(C)C)cc1
7.94 | Cc1ncsc1-c1ccc(CNC(=O)[C@@H]2C[C@@H](O)CN2C(=O)[C@@H](NC(=O)COCc2cn(CCOc3cnc4c(C5CCN(C(=O)c6ccc(OC(F)(F)F)cc6)CC5)ncnc4c3)nn2)C(C)(C)C)cc1
7.28 | Cc1ncsc1-c1ccc(CNC(=O)[C@@H]2C[C@@H](O)CN2C(=O)[C@@H](NC(=O)Cc2ccc(OCCOc3cnc4c(C5CCN(C(=O)c6ccc(OC(F)(F)F)cc6)CC5)ncnc4c3)cn2)C(C)(C)C)cc1
5.42 | Cc1ncsc1-c1ccc(CNC(=O)[C@@H]2C[C@@H](O)CN2C(=O)[C@@H](NC(=O)CCOCCOCCOc2cnc3c(C4CCN(C(=O)c5ccc(OC(F)(F)F)cc5)CC4)ncnc3c2)C(C)(C)C)cc1
8.29 | Cc1ncsc1-c1ccc(CNC(=O)[C@@H]2C[C@@H](O)CN2C(=O)[C@@H](NC(=O)CCCCCCCCOc2cnc3c(C4CCN(C(=O)c5ccc(OC(F)(F)F)cc5)CC4)ncnc3c2)C(C)(C)C)cc1
6.9 | Cc1ncsc1-c1ccc(CNC(=O)[C@@H]2C[C@@H](O)CN2C(=O)[C@@H](NC(=O)CN2CCC(CCCOc3cnc4c(C5CCN(C(=O)c6ccc(OC(F)(F)F)cc6)CC5)ncnc4c3)CC2)C(C)(C)C)cc1
6.3 | Cc1ncsc1-c1ccc(CNC(=O)[C@@H]2C[C@@H](O)CN2C(=O)[C@@H](NC(=O)COCCOCCNC(=O)COc2cnc3c(C4CCN(C(=O)c5ccc(OC(F)(F)F)cc5)CC4)ncnc3c2)C(C)(C)C)cc1
7.56 | Cc1ncsc1-c1ccc(CNC(=O)[C@@H]2C[C@@H](O)CN2C(=O)[C@@H](NC(=O)Cc2ccc(OCCOc3cnc4c(C5CCN(C(=O)c6ccc(OC(F)(F)F)cc6)CC5)ncnc4c3)cc2)C(C)(C)C)cc1
6.21 | Cc1ncsc1-c1ccc(CNC(=O)[C@@H]2C[C@@H](O)CN2C(=O)[C@@H](NC(=O)CCOCCNC(=O)COc2cnc3c(C4CCN(C(=O)c5ccc(OC(F)(F)F)cc5)CC4)ncnc3c2)C(C)(C)C)cc1
